From ChEMBL document CHEMBL3758163, “Extended structure-activity study of thienopyrimidine-based EGFR inhibitors with evaluation of drug-like properties” (Eur J Med Chem, 2016)

How the values were obtained:
[1] = target: Protein kinase C theta type (Homo sapiens) (UniProt Q04759); assay: Inhibition of PRKCQ (unknown origin) at 500 nM
[2] = target: T1, Aurora kinase A (Homo sapiens) (UniProt O14965); assay: Inhibition of AURKA (unknown origin) at 500 nM
T1 sequence (whole entry): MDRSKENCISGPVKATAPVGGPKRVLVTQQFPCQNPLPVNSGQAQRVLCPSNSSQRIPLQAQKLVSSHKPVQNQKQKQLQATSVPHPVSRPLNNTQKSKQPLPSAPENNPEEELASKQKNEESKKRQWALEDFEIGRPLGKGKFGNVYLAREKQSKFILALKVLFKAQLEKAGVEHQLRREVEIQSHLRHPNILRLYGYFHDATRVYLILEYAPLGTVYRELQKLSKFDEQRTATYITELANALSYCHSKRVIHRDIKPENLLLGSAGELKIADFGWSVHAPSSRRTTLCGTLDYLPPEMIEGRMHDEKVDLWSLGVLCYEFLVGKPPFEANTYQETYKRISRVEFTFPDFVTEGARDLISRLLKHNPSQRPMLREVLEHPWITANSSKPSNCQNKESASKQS

[3] = target: Platelet-derived growth factor receptor beta (Homo sapiens) (UniProt P09619); assay: Inhibition of PDGFRB (unknown origin) at 500 nM
[4] = target: Aurora kinase B (Homo sapiens) (UniProt Q96GD4); assay: Inhibition of AURKB (unknown origin) at 500 nM
Aurora kinase B (Homo sapiens), sequence (Q96GD4 whole entry): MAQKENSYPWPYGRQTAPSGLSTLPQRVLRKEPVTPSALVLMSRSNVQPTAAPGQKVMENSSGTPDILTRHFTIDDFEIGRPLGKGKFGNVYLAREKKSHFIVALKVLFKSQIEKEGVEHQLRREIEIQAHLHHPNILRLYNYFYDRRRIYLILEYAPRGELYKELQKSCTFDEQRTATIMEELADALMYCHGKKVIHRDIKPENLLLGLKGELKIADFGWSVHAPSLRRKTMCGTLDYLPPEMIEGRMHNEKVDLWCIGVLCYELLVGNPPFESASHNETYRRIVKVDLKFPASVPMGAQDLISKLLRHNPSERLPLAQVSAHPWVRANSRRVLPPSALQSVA

[5] = target: MAP kinase-activated protein kinase 2 (Homo sapiens) (UniProt P49137); assay: Inhibition of MAPKAPK2 (unknown origin) at 500 nM
[6] = target: Tyrosine-protein kinase Lyn (Homo sapiens) (UniProt P07948); assay: Inhibition of LYN B (unknown origin) at 500 nM
[7] = target: Mast/stem cell growth factor receptor Kit (Homo sapiens) (UniProt P10721); assay: Inhibition of KIT (unknown origin) at 500 nM
[8] = target: Tyrosine-protein kinase Fer (Homo sapiens) (UniProt P16591); assay: Inhibition of FER (unknown origin) at 500 nM
Tyrosine-protein kinase Fer (Homo sapiens), sequence (P16591 whole entry, looked up): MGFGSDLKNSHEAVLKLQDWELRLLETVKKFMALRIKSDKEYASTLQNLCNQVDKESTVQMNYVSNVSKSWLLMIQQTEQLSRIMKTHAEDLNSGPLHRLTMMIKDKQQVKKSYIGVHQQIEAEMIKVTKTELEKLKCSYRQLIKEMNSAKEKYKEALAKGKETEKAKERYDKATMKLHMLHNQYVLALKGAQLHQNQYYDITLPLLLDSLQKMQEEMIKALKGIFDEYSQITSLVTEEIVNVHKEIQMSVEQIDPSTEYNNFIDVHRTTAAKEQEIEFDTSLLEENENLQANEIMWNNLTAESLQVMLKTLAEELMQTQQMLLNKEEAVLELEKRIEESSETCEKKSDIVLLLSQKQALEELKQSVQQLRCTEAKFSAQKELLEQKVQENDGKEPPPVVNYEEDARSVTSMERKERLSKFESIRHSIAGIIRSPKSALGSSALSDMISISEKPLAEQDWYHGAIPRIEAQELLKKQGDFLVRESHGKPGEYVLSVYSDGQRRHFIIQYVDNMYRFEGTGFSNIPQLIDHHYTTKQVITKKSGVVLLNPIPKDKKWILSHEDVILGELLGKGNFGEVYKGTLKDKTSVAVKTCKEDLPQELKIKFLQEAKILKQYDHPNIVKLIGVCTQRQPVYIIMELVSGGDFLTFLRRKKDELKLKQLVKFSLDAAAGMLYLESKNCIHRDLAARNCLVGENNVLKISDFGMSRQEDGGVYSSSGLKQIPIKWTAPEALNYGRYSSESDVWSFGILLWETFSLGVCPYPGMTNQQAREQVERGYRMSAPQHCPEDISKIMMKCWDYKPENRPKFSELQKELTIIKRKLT

[9] = target: Protein kinase C beta type (Homo sapiens) (UniProt P05771); assay: Inhibition of PRKCB1 (unknown origin) at 500 nM
[10] = target: Receptor tyrosine-protein kinase erbB-2 (Homo sapiens) (UniProt P04626); assay: Inhibition of ERBB2 (unknown origin) at 500 nM
[11] = target: Tyrosine-protein kinase CSK (Homo sapiens) (UniProt P41240); assay: Inhibition of CSK (unknown origin) at 500 nM
[12] = target: Macrophage colony-stimulating factor 1 receptor (Homo sapiens) (UniProt P07333); assay: Inhibition of CSF1R (unknown origin) at 500 nM
Macrophage colony-stimulating factor 1 receptor (Homo sapiens), sequence (P07333 whole entry): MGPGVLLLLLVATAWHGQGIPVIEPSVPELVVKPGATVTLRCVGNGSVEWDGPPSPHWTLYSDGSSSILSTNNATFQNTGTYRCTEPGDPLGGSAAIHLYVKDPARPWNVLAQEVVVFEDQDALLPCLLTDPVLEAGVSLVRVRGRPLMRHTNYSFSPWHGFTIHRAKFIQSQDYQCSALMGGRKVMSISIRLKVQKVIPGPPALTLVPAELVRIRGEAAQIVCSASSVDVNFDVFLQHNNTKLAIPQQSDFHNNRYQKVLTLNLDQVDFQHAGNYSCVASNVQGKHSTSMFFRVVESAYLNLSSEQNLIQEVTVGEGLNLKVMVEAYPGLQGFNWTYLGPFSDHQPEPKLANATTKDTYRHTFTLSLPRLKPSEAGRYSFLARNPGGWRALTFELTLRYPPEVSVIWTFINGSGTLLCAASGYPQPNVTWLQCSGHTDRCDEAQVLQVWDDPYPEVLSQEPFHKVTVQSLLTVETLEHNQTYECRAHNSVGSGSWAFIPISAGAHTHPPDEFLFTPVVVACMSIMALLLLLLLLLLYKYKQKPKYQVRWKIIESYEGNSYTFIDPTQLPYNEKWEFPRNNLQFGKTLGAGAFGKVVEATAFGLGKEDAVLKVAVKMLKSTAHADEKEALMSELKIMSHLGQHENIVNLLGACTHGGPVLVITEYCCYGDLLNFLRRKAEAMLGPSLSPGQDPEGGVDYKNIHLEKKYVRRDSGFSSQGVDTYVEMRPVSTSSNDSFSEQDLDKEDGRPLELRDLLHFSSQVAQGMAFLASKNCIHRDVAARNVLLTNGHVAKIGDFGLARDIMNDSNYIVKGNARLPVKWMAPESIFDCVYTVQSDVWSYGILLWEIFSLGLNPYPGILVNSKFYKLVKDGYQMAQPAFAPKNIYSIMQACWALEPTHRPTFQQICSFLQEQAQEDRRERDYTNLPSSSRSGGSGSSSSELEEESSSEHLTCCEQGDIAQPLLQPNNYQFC

[13] = target: Receptor tyrosine-protein kinase erbB-4 (Homo sapiens) (UniProt Q15303); assay: Inhibition of ERBB4 (unknown origin) at 500 nM
[14] = target: Mitogen-activated protein kinase 14 (Homo sapiens) (UniProt Q16539); assay: Inhibition of MAPK14 (unknown origin) at 500 nM
[15] = target: Serine/threonine-protein kinase PLK1 (Homo sapiens) (UniProt P53350); assay: Inhibition of PLK1 (unknown origin) at 500 nM
[16] = target: Serine/threonine-protein kinase B-raf (Homo sapiens) (UniProt P15056); assay: Inhibition of BRAF (unknown origin) at 500 nM
[17] = target: Mitogen-activated protein kinase 8 (Homo sapiens) (UniProt P45983); assay: Inhibition of MAPK8 (unknown origin) at 500 nM
[18] = Half-life in human liver microsomes at 3 uM by LC-MS/MS analysis; format: ADME
[19] = target: T2, Inhibitor of nuclear factor kappa-B kinase subunit beta (Homo sapiens) (UniProt O14920); assay: Inhibition of IKBKB (unknown origin) at 500 nM
T2 sequence (whole entry): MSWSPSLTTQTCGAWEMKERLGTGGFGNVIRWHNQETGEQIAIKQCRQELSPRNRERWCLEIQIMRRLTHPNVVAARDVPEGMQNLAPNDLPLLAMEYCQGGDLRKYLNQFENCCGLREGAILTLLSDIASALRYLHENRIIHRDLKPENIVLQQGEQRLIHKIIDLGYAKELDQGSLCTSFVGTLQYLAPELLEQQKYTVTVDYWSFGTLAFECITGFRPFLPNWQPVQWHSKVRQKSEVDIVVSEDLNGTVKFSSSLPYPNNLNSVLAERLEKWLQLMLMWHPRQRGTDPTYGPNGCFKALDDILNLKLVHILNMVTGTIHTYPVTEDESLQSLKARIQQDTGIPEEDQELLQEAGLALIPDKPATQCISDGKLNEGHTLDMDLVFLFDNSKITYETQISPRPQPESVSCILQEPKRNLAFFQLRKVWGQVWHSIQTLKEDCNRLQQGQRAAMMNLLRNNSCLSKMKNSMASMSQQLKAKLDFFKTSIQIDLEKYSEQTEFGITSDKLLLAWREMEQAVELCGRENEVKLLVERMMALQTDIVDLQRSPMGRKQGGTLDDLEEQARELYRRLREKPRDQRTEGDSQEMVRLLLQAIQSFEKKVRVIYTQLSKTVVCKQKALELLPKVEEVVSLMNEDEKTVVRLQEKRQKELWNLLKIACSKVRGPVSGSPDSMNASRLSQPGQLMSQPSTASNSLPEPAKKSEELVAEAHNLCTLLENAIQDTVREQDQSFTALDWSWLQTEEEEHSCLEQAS

[20] = target: Protein kinase C alpha type (Homo sapiens) (UniProt P17252); assay: Inhibition of PRKCA (unknown origin) at 500 nM
[21] = target: Tyrosine-protein kinase JAK2 (Homo sapiens) (UniProt O60674); assay: Inhibition of JAK2 (unknown origin) at 500 nM
Tyrosine-protein kinase JAK2 (Homo sapiens), sequence (O60674 whole entry): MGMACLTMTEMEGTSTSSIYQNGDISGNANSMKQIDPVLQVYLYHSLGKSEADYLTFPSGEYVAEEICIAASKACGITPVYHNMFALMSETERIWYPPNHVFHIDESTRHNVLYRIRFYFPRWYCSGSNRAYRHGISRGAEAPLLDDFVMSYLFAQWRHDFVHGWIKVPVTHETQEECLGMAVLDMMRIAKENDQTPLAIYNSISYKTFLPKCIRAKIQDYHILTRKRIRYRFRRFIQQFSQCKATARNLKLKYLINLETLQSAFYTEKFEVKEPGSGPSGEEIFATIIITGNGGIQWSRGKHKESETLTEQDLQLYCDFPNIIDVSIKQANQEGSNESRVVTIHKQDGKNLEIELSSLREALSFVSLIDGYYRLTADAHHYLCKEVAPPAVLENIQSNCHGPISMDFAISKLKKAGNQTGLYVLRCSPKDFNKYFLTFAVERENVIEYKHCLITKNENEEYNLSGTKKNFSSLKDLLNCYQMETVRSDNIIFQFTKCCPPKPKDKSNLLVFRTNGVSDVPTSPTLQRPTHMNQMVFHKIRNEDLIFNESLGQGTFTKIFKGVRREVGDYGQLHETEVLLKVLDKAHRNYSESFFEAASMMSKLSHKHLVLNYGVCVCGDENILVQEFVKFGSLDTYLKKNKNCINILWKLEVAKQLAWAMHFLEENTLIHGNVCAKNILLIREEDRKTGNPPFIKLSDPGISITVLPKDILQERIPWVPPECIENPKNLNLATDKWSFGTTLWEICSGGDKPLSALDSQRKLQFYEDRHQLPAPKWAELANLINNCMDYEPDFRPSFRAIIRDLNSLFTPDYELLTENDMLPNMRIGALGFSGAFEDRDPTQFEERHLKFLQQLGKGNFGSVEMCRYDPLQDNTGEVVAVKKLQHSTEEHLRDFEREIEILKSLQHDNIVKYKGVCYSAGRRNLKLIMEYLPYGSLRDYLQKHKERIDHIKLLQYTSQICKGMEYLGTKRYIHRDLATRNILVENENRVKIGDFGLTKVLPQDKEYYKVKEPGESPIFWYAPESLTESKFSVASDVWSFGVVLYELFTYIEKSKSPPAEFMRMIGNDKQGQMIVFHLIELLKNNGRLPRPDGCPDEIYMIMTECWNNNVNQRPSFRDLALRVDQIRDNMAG

[22] = target: Angiopoietin-1 receptor (Homo sapiens) (UniProt Q02763); assay: Inhibition of TEK (unknown origin) at 500 nM
Angiopoietin-1 receptor (Homo sapiens), sequence (Q02763 whole entry): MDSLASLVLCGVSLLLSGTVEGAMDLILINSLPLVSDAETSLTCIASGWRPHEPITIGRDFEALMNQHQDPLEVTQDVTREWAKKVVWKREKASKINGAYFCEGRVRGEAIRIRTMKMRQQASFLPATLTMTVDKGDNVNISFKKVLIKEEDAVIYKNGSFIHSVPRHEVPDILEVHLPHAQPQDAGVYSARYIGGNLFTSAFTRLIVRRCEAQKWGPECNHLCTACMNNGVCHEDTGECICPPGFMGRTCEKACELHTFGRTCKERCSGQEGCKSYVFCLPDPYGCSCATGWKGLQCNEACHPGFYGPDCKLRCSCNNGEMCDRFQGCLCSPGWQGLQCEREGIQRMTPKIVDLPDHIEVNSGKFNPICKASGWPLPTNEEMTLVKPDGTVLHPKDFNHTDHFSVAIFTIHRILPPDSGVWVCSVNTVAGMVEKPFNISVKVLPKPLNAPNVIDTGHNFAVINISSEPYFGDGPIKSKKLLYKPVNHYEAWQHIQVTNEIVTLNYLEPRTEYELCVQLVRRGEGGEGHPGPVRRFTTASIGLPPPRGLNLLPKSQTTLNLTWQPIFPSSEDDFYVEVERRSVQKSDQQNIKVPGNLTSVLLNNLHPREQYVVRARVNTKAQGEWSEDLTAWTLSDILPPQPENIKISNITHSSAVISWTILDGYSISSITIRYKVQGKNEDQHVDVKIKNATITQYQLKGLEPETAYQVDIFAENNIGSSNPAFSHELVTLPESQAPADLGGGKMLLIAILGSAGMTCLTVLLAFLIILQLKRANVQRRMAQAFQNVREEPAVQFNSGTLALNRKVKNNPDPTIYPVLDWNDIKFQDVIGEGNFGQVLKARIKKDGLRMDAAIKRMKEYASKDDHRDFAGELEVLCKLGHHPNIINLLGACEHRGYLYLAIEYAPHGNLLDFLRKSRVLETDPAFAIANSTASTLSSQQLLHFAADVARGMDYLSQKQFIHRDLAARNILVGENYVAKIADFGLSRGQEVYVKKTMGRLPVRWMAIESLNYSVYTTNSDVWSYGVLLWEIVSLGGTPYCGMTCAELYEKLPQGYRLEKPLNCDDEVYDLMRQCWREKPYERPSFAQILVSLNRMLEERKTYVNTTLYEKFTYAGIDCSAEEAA

[23] = target: T3, Serine/threonine-protein kinase Chk1 (Homo sapiens) (UniProt O14757); assay: Inhibition of CHEK1 (unknown origin) at 500 nM
T3 sequence (whole entry): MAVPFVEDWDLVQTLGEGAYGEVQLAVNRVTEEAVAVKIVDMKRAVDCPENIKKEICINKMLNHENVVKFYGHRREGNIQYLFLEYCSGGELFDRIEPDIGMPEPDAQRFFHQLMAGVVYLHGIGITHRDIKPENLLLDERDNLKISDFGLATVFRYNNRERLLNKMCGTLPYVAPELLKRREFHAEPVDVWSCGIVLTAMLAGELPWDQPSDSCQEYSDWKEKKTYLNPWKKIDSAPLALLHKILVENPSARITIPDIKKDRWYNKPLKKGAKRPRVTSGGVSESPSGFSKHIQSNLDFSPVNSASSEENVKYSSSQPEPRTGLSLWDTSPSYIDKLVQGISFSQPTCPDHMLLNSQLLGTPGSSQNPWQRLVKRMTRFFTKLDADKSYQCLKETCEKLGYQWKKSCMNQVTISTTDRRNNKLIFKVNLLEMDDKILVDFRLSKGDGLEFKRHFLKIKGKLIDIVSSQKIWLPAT

inhibition [1] [%] | inhibition [2] [%] | inhibition [3] [%] | inhibition [4] [%] | inhibition [6] [%] | inhibition [7] [%] | inhibition [8] [%] | inhibition [9] [%] | inhibition [10] [%] | inhibition [11] [%] | inhibition [12] [%] | inhibition [13] [%] | inhibition [14] [%] | inhibition [15] [%] | inhibition [16] [%] | inhibition [17] [%] | inhibition [19] [%] | inhibition [20] [%] | inhibition [21] [%] | inhibition [22] [%] | Compound | also measured
-5 | 14 | 13 | 21 | 9 |  | -2 | -2 | 19 | 8 | -1 | 12 |  | -8 | 16 | 3 | -4 | -7 | 6 | -1 | C#Cc1cccc(Nc2ncnc3sc(-c4ccc(CO)cc4OC)cc23)c1 | inhibition [23]: -3%
3 | -6 | -3 | 7 | 15 | 1 | -1 | -2 | 48 | 15 | 4 | 31 | 6 | 6 | 3 | 14 | 1 | 2 | -3 | 11 | COc1cc(CO)ccc1-c1cc2c(Nc3ccc(F)c(Cl)c3)ncnc2s1 | inhibition [5]: 3%; half-life at 3 µM [18]: 2.6 h

Continued, compound first:

Compound | inhibition [1] [%] | inhibition [2] [%] | inhibition [3] [%] | inhibition [4] [%] | inhibition [6] [%] | inhibition [7] [%] | inhibition [8] [%] | inhibition [9] [%] | inhibition [10] [%] | inhibition [11] [%] | inhibition [12] [%] | inhibition [13] [%] | inhibition [14] [%] | inhibition [15] [%] | inhibition [16] [%] | inhibition [17] [%] | inhibition [19] [%] | inhibition [20] [%] | inhibition [21] [%] | inhibition [22] [%] | also measured
COc1cc(C(N)=O)ccc1-c1cc2c(N[C@H](CO)c3ccccc3)ncnc2s1 | -2 | 6 | 8 | 6 | 57 | -9 | -3 | 5 | 37 | 12 | 6 | 62 | 6 | -8 | 25 | 42 | 3 | -4 | -2 | 7 | inhibition [5]: -7%; half-life at 3 µM [18]: 5.13 h
C[C@@H](Nc1ncnc2sc(-c3ccc(C(=O)NCCN(C)C)cc3)cc12)c1ccccc1 | -5 | 3 | 6 | 17 | 41 | -5 | -4 | 2 | 40 | 10 | 8 | 14 | 7 | 1 | 23 | 38 | 7 | 0 | -10 | 3 | inhibition [23]: -6%
C[C@@H](Nc1ncnc2sc(-c3ccccc3C(N)=O)cc12)c1ccccc1 | -1 | 6 | 6 | 2 | 16 | -7 | -4 | 3 | -3 | 12 | 3 | 10 | 9 | -3 | 21 | 26 | 6 | 8 | -8 | 0 | inhibition [5]: -8%; inhibition [23]: -4%
